Test results as given in ChEMBL document CHEMBL5223079, “Progress toward B-Cell Lymphoma 6 BTB Domain Inhibitors for the Treatment of Diffuse Large B-Cell Lymphoma and Beyond” (J Med Chem, 2021).
Converted amounts (≈) assume the structure as drawn. Values belong to the compound of their own block, whether it stands above or below them.

Tests used:
[1] = Aqueous solubility of the compound; type: physicochemical; details: buffer
[2] = Plasma clearance in Balb/C mouse at 1 mg/kg, po or 5 mg/kg, iv; type: ADME, organism-based; details: in vivo
SUD4 [3] = assay: Antitumor activity against ATR human SU-DHL-4 cells xenografted in mouse assessed as increased in mRNA expression at 5 mg/kg, administered daily for 3days by RT-PCR analysis; type: functional
SUD4 [4] = assay: Antitumor activity against CXCR4 human SU-DHL-4 cells xenografted in mouse assessed as increase in mRNA expression at 5 mg/kg, administered daily for 3days by RT-PCR analysis; type: functional
OCI-Ly7 = assay: cells; details: Homo sapiens
Toledo = assay: cells; details: Homo sapiens
[5] = Intrinsic clearance in mouse liver; type: ADME, tissue-based; details: read-out: CLH
DOHH-2 = assay: cells; details: Homo sapiens
SUD4 [6] = assay: Antitumor activity against human SU-DHL-4 cells xenografted in mouse assessed as reduction in tumor weight at 5 mg/kg, iv treated every other day for 3 days; type: functional; set-up: scale not given: the % may be the effect or the level left; details: time 3 day
[7] = Intrinsic clearance in mouse microsomes; type: ADME, Microsome
[8] = Metabolic stability in human liver microsome assessed as half life; type: ADME; details: liver microsomes
SUD4 [9] = assay: cells; details: Homo sapiens, SU-DHL-4
SUD4 [10] = assay: Antitumor activity against human SU-DHL-4 cells xenografted in mouse assessed as reduction in tumor volume at 5 mg/kg, iv treated every other day for 3 days; type: functional; set-up: scale not given: the % may be the effect or the level left; details: time 3 day
SUD4 [11] = assay: Decrease in number of living cells in human SUDHL4 cells at 0.625 uM incubated for 48 hrs by flow cytometry (reference value: 48%); set-up: scale not given: the % may be the effect or the level left
SUD4 [12] = assay: Decrease in number of living cells in human SUDHL4 cells at 1.25 uM incubated for 48 hrs by EdU flow cytometry assay (reference value: 48%); set-up: scale not given: the % may be the effect or the level left
SUD4 [13] = assay: Decrease in number of living cells in human SUDHL4 cells at […] incubated for 48 hrs by EdU flow cytometry assay (reference value: 48%); set-up: scale not given: the % may be the effect or the level left; details: dose 2.5 µM
Farage = assay: cells; details: Homo sapiens
SUD4 [14] = assay: Antitumor activity against CD69 human SU-DHL-4 cells xenografted in mouse assessed as increase in mRNA expression at 5 mg/kg, administered daily for 3days by RT-PCR analysis; type: functional
[15] = Oral bioavailability in SCID mouse plasma at 10 mg/kg; type: ADME, organism-based; set-up: dose 10 mg/kg, route po
[16] = target: B-cell lymphoma 6 protein (Homo sapiens, UniProt P41182); assay: Inhibition of human BCL6 […] domain
[17] = Oral bioavailability in SCID mouse plasma at 100 mg/kg; type: ADME, organism-based
BCL-6/NCOR2 = BCL-6/NCOR2 (Homo sapiens, UniProt P41182); assay: Inhibition of BCL6/SMRT protein protein interaction (unknown origin) by TR-FRET assay

solubility [1]: 60 µM (≈ 14.6 µg/mL)
SMILES: N#Cc1c(NCc2ccccc2)ccnc1Cl

clearance [2]: 20 mL/min/kg
SMILES: C[C@@H]1CN(c2ncc(Cl)c(Nc3ccc4c(c3)n(CCC(C)(C)O)c(=O)n4C)n2)C[C@H](C)C1(F)F

solubility [1]: 300 µM (≈ 62.3 µg/mL)
SMILES: N#Cc1c(NCC2CC2)ccnc1Cl

solubility [1]: 300 µM (≈ 83.8 µg/mL)
SMILES: Cn1c(=O)n(C)c2cc(Nc3ncccc3C#N)ccc21

IC50 (OCI-Ly7): 1000 nM
IC50 (Toledo): 3300 nM
CLint scaled [5]: < 38 mL/min/kg
IC50 (DOHH-2): 1000 nM
microsomal CLint [7]: < 9.6 µL/min/mg
half-life [8]: > 1 h
IC50 (SUD4 [9]): 1000 nM
IC50 (Farage): 1000 nM
SMILES: COc1cc(Nc2nc(N3C[C@@H](C)N[C@@H](C)C3)ncc2F)ccc1NC(=O)c1ccc(C2=CCCC2)s1
Activity (SUD4 [3]): >200%
Activity (SUD4 [4]): >60%
Activity (SUD4 [6]): 70%
Activity (SUD4 [10]): 60%
Activity (SUD4 [11]): 27%
Activity (SUD4 [12]): 13%
Activity (SUD4 [13]): 6.6%
Activity (SUD4 [14]): >150%

solubility [1]: < 30 µM
SMILES: Cn1c(=O)n(C)c2cc(Nc3cc(SCc4ccccc4)ncn3)ccc21

AUC [15]: 1.86 µM·h
Cmax [15]: 193 nM
IC50 [16]: ≤ 3 nM
Cmax [17]: 599 nM
SMILES: CNC(=O)COc1cc2cc(Nc3nc(N4C[C@H](C)C[C@H](C)C4)ncc3Cl)ccc2n(C)c1=O

IC50 [16]: ≤ 3 nM
SMILES: CNC(=O)COc1cc2cc(Nc3nc(N4CCC(C(=O)N(C)C)CC4)ncc3Cl)cc(OC)c2n(C)c1=O

IC50 (BCL-6/NCOR2): 19000 nM
SMILES: COc1ccc(Nc2nc(NCC(C)C)ncc2F)cc1Cl
